Legend:
Assay type in all cases: binding
LC3A (C17) = LC3A (C17) (Homo sapiens, UniProt Q9H492); assay: gel-based ABPP screen of cysteine-reactive covalent ligands against IA-alkyne labeling of LC3A; settings: for hit that displaced IA-alkyne probe labeling of C17 on LC3A (loss of in-gel fluorescence): pure LC3A protein
From the text: The critical part of this platform was to first develop a small-molecule recruiter for an autophagy adapter. We performed chemoproteomics-enabled covalent ligand discovery against the autophagy adapter LC3A, an important autophagy protein involved in substrate recognition, to discover an LC3A-recruiter, which can be combined with a protein targeting ligand via a linker to enable targeted protein autophagy of undruggable targets. […] While the NETS-ester probe appeared to label multiple sites on LC3A, the IA-alkyne probe apparently labeled one site, consistent with only one cysteine within LC3A-C17. Across the LC3 proteins, LC3A is the only protein that bears one cysteine. We next screened our cysteine-reactive covalent ligand library against iodoacetamide-alkyne (IA-alkyne) labeling of C17 on LC3A, and looked for hits that displaced probe-labeling resulting in loss of fluorescence by gel. Through this effort, we identified several cysteine-reactive acrylamide hits, including TRH 1-65, TRH 1-68, TRH 1-170, TRH 1-171, YP 1-44, CC 1-42, CC 1-48, EN2, EN7, EN35, and EN40 (FIGS. 5A-5D). These small-molecule recruiters or analogs of these chemical scaffolds that also bind to LC3A C17 can now be appended to linkers and protein targeting ligands to send specific protein cargo, and associated cellular contents, compartments, cells, or organelles off for targeted protein autophagy and lysososomal degradation. […] Examples of compounds that can be appended onto an autophagy adapter recruiter is JQ1, an inhibitor of bromodomain-containing BRD4 protein (an epigenetic regulator implicated in numerous human cancers). JQ1 can be appended to a linker, and an LC3A recruiter EN7 to degrade BRD4 in cells (FIGS. 7A-7C). Protein autophagy degrader can also be used to broadly recognize misfolded proteins and protein aggregates by conjugating thioflavin T, a general aggregate-protein recognizing compound, to a linker and EN7 to send these toxic protein aggregates and misfolded proteins to the autophagosome for lysosomal degradation (FIG. 8).

LC3A = LC3A (Homo sapiens, UniProt Q9H492); assay: Gel-based ABPP analysis against LC3A; settings: IA-alkyne probe
Protocol: FIGS. 5A-5D. Covalent ligand screen against LC3A. Gel-based ABPP screen of cysteine-reactive ligand library against IA-alkyne labeling of LC3A. Cysteine-reactive covalent ligands were pre-incubated with LC3A pure protein (50 microM) for 30 min at room temperature prior to IA-alkyne labeling of the protein (10 microM) for 30 min at room temperature. Proteins were run on SDS/PAGE and in-gel fluorescence was analyzed.

p62/SQSTM1 protein = p62/SQSTM1 protein (Homo sapiens, UniProt Q13501); assay: MS/MS of direct adduct on a peptide derived from p62/SQSTM1
p62/SQSTM1 protein, sequence (Q13501 whole entry): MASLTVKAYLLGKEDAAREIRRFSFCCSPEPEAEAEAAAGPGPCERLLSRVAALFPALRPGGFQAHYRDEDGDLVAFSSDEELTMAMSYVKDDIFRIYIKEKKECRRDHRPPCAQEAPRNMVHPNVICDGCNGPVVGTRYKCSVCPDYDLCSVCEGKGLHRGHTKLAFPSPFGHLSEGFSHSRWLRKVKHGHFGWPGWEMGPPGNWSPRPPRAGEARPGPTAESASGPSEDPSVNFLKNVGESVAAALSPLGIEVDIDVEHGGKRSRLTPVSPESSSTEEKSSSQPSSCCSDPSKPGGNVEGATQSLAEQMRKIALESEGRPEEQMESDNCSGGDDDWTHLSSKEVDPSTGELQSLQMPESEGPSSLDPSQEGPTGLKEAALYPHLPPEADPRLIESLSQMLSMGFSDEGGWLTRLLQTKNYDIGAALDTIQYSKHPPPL
From the text: FIG. 14. MS/MS data corresponding to the direct adduct of EN96 on a peptide derived from p62/SQSTM1.

SQSTM1 (p62) = SQSTM1 (p62) (Homo sapiens, UniProt Q13501); assay: gel-based ABPP cysteine-reactive covalent ligand screen against SQSTM1 (p62); settings: FIGS. 10A-10B
SQSTM1 (p62), sequence (Q13501 whole entry): as above
From the text: We have performed a cysteine-reactive covalent ligand screen against the autophagy adapter protein SQSTM1 (p62) using gel-based activity-based protein profiling (ABPP) approaches. We have identified several hit compounds that targeted a cysteine on SQSTM1 (FIGS. 10A-10B). […] To test whether we can use this potential SQSTM1 recruiter EN96 in a TADT platform, we synthesized BMF-1-64, which links EN96 to a BRD4 inhibitor JQ1, to determine whether we could degrade BRD4 in a proteasome-independent manner (FIG. 11).

| Compound | hit that displaced IA-alkyne probe labeling of C17 on LC3A (loss of in-gel fluorescence) (LC3A (C17)) | other results |
| --- | --- | --- |
| C=CC(=O)NCc1ccc(C(=O)N2CCC(c3nc4ccccc4s3)CC2)cc1 [EN2] | hits |  |
| C=CC(=O)N=C1N=C2C=CC(I)=CN2Cc2ccccc21 [EN7] | hits | targeting of C17 of LC3A, lowest concentration (LC3A): ≥ 1 µM; concentration down to which the compound binds LC3A (LC3A (C17); FIG. 6): ≥ 1 µM |
| C=CC(=O)NC(c1ccco1)c1ccccc1OC (centres unmarked) [EN35] | hits |  |
| C=CC(=O)N1CCC(C)C(c2ccco2)C1 (centres unmarked) [EN40] | hits |  |
| C=CCOc1ccccc1CN(C(=O)CCl)c1ccc2c(c1)OCO2 [EN96] |  | cysteine of p62/SQSTM1 modified (p62/SQSTM1 protein): reacts with C113; potency ranking among covalent ligand hits against SQSTM1 (SQSTM1 (p62)): most potent covalent ligand against SQSTM1 |
